Experiments:
[1] = Representative effective dose for mouse studies (Table 15); format: in vivo; details: oral
Procedure: The PANDA Agent comprising a three and/or five valence arsenic is generally effective in treating cancer in a subject, including an animal, at a dose at a wide range of dosages by intravenous injection and oral administration. In certain embodiments, the daily dosage is from about 0.5 mg/kg to about 50 mg/kg, preferably from about 0.5 mg/kg to about 25 mg/kg, more preferably from about 1 mg/kg to about 25 mg/kg, more preferably from about 1 mg/kg to about 15 mg/kg, more preferably from about 1.7 mg/kg to about 15 mg/kg, and more preferably from about 1.7 mg/kg to about 5 mg/kg. In certain embodiments, the dose is about 5 mg/kg. In certain embodiments, the PANDA Agent ATO is administered by intravenous injection or by oral administration at 1 mg/ml concentration, at a dose of 5 mg/kg per day.
In other embodiments, the daily dosage is from about 10 mg/kg to about 1000 mg/kg, preferably from about 10 mg/kg to about 500 mg/kg, more preferably from about 20 mg/kg to about 500 mg/kg, more preferably from about 20 mg/kg to about 300 mg/kg, more preferably from about 33 mg/kg to about 300 mg/kg, and more preferably from about 33 mg/kg to about 100 mg/kg. In certain embodiments, the dose is about 100 mg/kg. In certain embodiments, the PANDA Agent As2S2, As2S3, As2S5, and As4S4 is administered by oral administration at 15 mg/L concentration, at a dose of 100 mg/kg
(§1) The PANDA Agent comprising a three valence and/or five valence antimony is generally effective in treating cancer in a subject, including an animal, at a dose at a wide range of dosages by intravenous injection and oral administration. In certain embodiments, dosage is from about 60 mg/kg to about 6000 mg/kg, preferably from about 60 mg/kg to about 3000 mg/kg, more preferably from about 120 mg/kg to about 3000 mg/kg, more preferably from about 120 mg/kg to about 1500 mg/kg, more preferably from about 150 mg/kg to about 1200 mg/kg, and more preferably from about 300 mg/kg to about 1200 mg/kg. In certain embodiments, the dose is about 600 mg/kg. In certain embodiments, the PANDA Agent is administered by intravenous or oral administration at 100 mg/ml concentration, at a dose of 600 mg/kg per day.
as §1, with “bismuth” for “antimony”, “embodiments, the daily” for “embodiments,”, “In certain embodiments, the dose is about 600 mg/kg. In certain embodiments, the PANDA Agent is administered by intravenous or oral administration at 100 mg/ml concentration, at a dose of 600 mg/kg per day.” left out

[2] = Representative effective dose in humans (Table 16); format: in vivo, human; details: oral
Excerpt: The PANDA Agent comprising a three and/or five valence arsenic is generally effective in treating cancer in a human at a wide range of dosages by intravenous injection and oral administration.
The PANDA Agent comprising a three and/or five valence antimony is generally effective in treating cancer in a human at a wide range of dosages by intravenous injection and oral administration. In certain embodiments, the effective dose results in a maximum Sb concentration in the patient's blood (plasma) from about 3.58 mg/L to about 357.5 mg/L, preferably from about 3.58 mg/L to about 179 mg/L, more preferably from about 7.15 mg/L to about 179 mg/L, more preferably from about 7.15 mg/L to about 107 mg/L, more preferably from about 12 mg/L to about 107 mg/L, more preferably from about 32.7 to about 38.8 mg/L. In certain embodiments, the daily dose is from about 20 mg/kg, wherein the maximum Sb concentration is from about 32.7 mg/L to about 38.8 mg/L, and wherein the platform Sb concentration in blood (plasma) is about 3.5 mg/L.
The PANDA Agent comprising a three and/or five valence bismuth is generally effective in treating cancer in a human at a wide range of dosages by intravenous injection and oral administration. In certain embodiments, the effective dose results in a maximum Bi concentration in the patient's blood (plasma) from about 3 mg/L to about 300 mg/L, preferably from about 3 mg/L to about 150 mg/L, more preferably from about 6 mg/L to about 150 mg/L, more preferably from about 6 mg/L to about 90 mg/L, more preferably from about 10 mg/L to about 90 mg/L, more preferably from about […]. In certain embodiments, the daily dose is from about 20 mg/kg, wherein the maximum Bi concentration is from about 32.7 mg/L to about 38.8 mg/L, and wherein the platform Bi concentration in blood (plasma) is about 3.5 mg/L.

mp53 [3] = assay: Functional rescuability of indicated mp53s (Luciferase, qPCR and/or Western blot); format: cell-based, human; details: for Func. Res. (whether the mp53 is functionally rescuable): Table 8, label = mp53 mutation, rescue agent ATO; for Func. Res: Table 9, functionally rescuable by PANDA Agent ATO, label = mp53
Procedure: (§2) For p53 folding assay, H1299 cells transfected with indicated TP53 were treated with 1 μg/ml ATO for 2 hr, and cells were lysed followed by immunoprecipitation using PAb1620. Immunoprecipitated p53 was immunoblotted. Experiments are repeated twice. For p53 transcriptional activity assay, H1299 cells were co-transfected with indicated TP53 and PUMA reporter for 24 hr, followed by treatment of 1 μg/ml ATO for 24 hr. […] X-axis: PAb1620 IP efficiency; Y-axis: PUMA luciferase report signal. Hollow cycles: without ATO treatment; solid cycles: with ATO treatment.
Cells were plated at a concentration of 2×10^4 cells/well in 24-well plates, followed by transfection of luciferase reporter plasmids for 24 hr. All transfection contained 300 ng p53 expressing plasmid, 100 ng of luciferase reporter plasmid and 5 ng of renilla plasmid per well. After agent treatment, cells were lysed in luciferase reporter assay buffer and determined using a luciferase assay kit (Promega). Activities of luciferase were divided by that of renilla to normalize the transfection efficiency.
Total RNA was isolated from cells using Total RNA Purification Kit (B518651, Sangon Biotech). 1 μg total RNA was reverse-transcribed using the GoScript®™ Reverse Transcriptase System (A5001, Promega) following manufacturer's protocol. PCR was performed in triplicate using SYBR green mix (Applied Biosystems), and a ViiA™ 7 Real-Time PCR System (Applied Biosystems) under the following conditions: 10 min at 95° C. followed by 40 cycles of 95° C. for 15 s and 60° C. for 1 min. Specificity of the PCR product was checked for each primer set and samples from the melting curve analysis. Expression levels of targeted genes were normalized relative to levels of β-actin adopting comparative Ct method. The primer sequences are as follows: MDM2 forward 5′-[…]-3′, reverse 5′-[…]-3′; PIG3 forward 5′-[…]-3′, reverse 5′-[…]-3′; PUMA forward 5′-[…]-3′, reverse 5′-[…]-3′; p21 forward 5′-[…]-3′, reverse 5′-[…]-3′; Bax forward 5′-[…]-3′, reverse 5′-[…]-3′; #-actin forward 5′-[…]-3′, reverse 5′-[…]-3′.

mp53 [4] = assay: mp53 rescue profile (either structurally or functionally rescuable); format: cell-based, human; details: Table 8; label = mp53 mutation; rescue agent ATO
mp53 [5] = assay: PAb1620 immunoprecipitation, structural rescuability of indicated mp53s (with/without ATO); format: cell-based, human; details: for Str. Res. (whether the mp53 is structurally rescuable): Table 8, label = mp53 mutation, rescue agent ATO; for Str. Res: Table 9, structurally rescuable by PANDA Agent ATO, label = mp53; for 1620 TP (PAb1620 immunoprecipitation efficiency): presence vs absence of ATO, cell line not indicated in this part of Table 9
Procedure: as §2
NP40 buffer at room temperature.

APL patients = details: orally administrated; cited from earlier work
p53 = assay: Inductively coupled plasma mass spectroscopy (ICP-MS), arsenic per p53; format: binding
Excerpt: We further discovered that elemental arsenic, elemental bismuth, elemental antimony, and compounds containing elemental arsenic, bismuth, and/or antimony are good rescue compounds for mp53. […] The arsenic-, bismuth-, and antimony-mediated mp53 rescue is achieved by binding of the released arsenic, bismuth, and antimony to mp53. […] The arsenic-, bismuth-, and antimony-mediated mp53 rescue also elevates mp53 Tm. […] Moreover, these rescue compounds can also rescue one or more mp53s.

[6] = presence vs absence of ATO, cell line not indicated

Compound: S=[As][As]=S (centres unmarked) [As2S2]
- Representative effective dose: Dose per day [1]: 100 mg/kg
- Maximun Metal concentration in blood (plasma) [2]: 0.57 to 1.31 mg/L
- Platform Metal concentration in blood (plasma) [2]: 0.03 to 0.07 mg/L
- Representative effective dose: Dose per day [2]: 2.80 mg/kg

Compound: H179P
- Func. Res. (whether the mp53 is functionally rescuable) (mp53 [3]): Yes
- Res. (either structurally or functionally rescuable) (mp53 [4]): Yes
- Str. Res. (whether the mp53 is structurally rescuable) (mp53 [5]): Yes

Compound: S=[As]S[As]=S (centres unmarked) [As2S3]
- Representative effective dose: Dose per day [1]: 100 mg/kg
- Maximun Metal concentration in blood (plasma) [2]: 0.57 to 1.31 mg/L
- Platform Metal concentration in blood (plasma) [2]: 0.03-0.07 L mg/L
- Representative effective dose: Dose per day [2]: 3.20 mg/kg

Compound: S1[As]2S[As]3S[As]2S[As]13 [As4S4, reference compound]
- Representative effective dose: Dose per day [1]: 100 mg/kg
- efficacy in treating APL patients (in words) (APL patients): as effective as conventional intravenous ATO
- Maximun Metal concentration in blood (plasma) [2]: 0.57 to 1.31 mg/L
- Platform Metal concentration in blood (plasma) [2]: 0.03 to 0.07 mg/L
- Representative effective dose: Dose per day [2]: 2.80 mg/kg

Compound: [AsH3] [arsenic]
- arsenic bound per p53 (ICP-MS) (p53): 0.93±0.19 arsenic per p53

Compound: D281H
- Func. Res (mp53 [3]): Yes (the PANDA Agent can rescue one or more of the mp53's wild type function to a 1.5 fold or more, as measured by luciferase assay, qPCR, or Western blot)
- Luciferase Assay PUMA (mp53 [3]; [6]): 2.2 fold
- Str. Res (mp53 [5]): Yes (can be rescured by the PANDA Agent ATO, as measured to a 1.5 fold or more increase in PAb1620 immunoprecipitation signal)
- 1620 TP (PAb1620 immunoprecipitation efficiency) (mp53 [5]): 2.1 fold

Compound: R283H
- Func. Res. (whether the mp53 is functionally rescuable) (mp53 [3]): Yes
- Func. Res (mp53 [3]): Yes (the PANDA Agent can rescue one or more of the mp53's wild type function to a 1.5 fold or more, as measured by luciferase assay, qPCR, or Western blot)
- Luciferase Assay PUMA (mp53 [3]; [6]): 1.6 fold
- Res. (either structurally or functionally rescuable) (mp53 [4]): Yes
- Str. Res. (whether the mp53 is structurally rescuable) (mp53 [5]): Yes
- Str. Res (mp53 [5]): Yes (can be rescured by the PANDA Agent ATO, as measured to a 1.5 fold or more increase in PAb1620 immunoprecipitation signal)
- 1620 TP (PAb1620 immunoprecipitation efficiency) (mp53 [5]): 1.6 fold

Compound: S=[As](=S)S[As](=S)=S [As2S5]
- Representative effective dose: Dose per day [1]: 100 mg/kg
- Representative effective dose: Dose per day [2]: 4.05 mg/kg

Compound: H179R
- Func. Res (mp53 [3]): Yes (the PANDA Agent can rescue one or more of the mp53's wild type function to a 1.5 fold or more, as measured by luciferase assay, qPCR, or Western blot)
- Luciferase Assay CDKNIA (mp53 [3]; [6]): 1.0 fold
- Luciferase Assay PUMA (mp53 [3]; [6]): 1.8 fold
- Str. Res (mp53 [5]): Yes (can be rescured by the PANDA Agent ATO, as measured to a 1.5 fold or more increase in PAb1620 immunoprecipitation signal)
- 1620 TP (PAb1620 immunoprecipitation efficiency) (mp53 [5]): 4.6 fold
